Key:
[1] = system: rat pure primary neuronal cultures; experiment: NMDA-induced caspase 3 activation in pure primary neuronal cultures; type: cell-based; details: 300 µM NMDA
Experimental: Primary cultures of rat brain cortical neurons were prepared essentially as described previously. The fronto-lateral cortical lobes were dissected out of Sprague-Dawley embryonic day 17 fetuses and they were dissociated mechanically in Hanks' balanced solution. After centrifugation at 800×g for 5 min, the cells were resuspended in serum-free Neurobasal medium (GIBCO) supplemented with B27 (GIBCO) containing 2 mM L-glutamine, penicillin (20 units/ml) and streptomycin (5 µg/ml), and they were plated onto poly-L-lysine-coated 24-well culture plates or on poly-L-lysine-coated 6-well culture plates. […]
(§1) To assay N-methyl–D-aspartate (NMDA) excitotoxicity, primary cultures were seeded in 24-well plates at 15×10^4 cells/well, cultured for 7 days in vitro, and treated for different times with the vehicle alone (dimethyl sulfoxide (DMSO) 1%), NMDA (300 µM), NMDA (300 µM) + MTA (250 µM) or NMDA (300 µM) + MK-801, a NMDA receptor antagonist (10 µM). […] Caspase 3 activity was measured in these lysates one hour after the NMDA addition.
(§2) Cortical neurons, or mixed cortical neurons and glia, were seeded in poly-L-lysine-coated 6-well culture plates during 7 days in vitro before start the set of experiments. […] The extracts were then centrifuged at 5,000×g for 10 min at 4°C and the protein content was determined by the BCA protein assay. […]

[2] = system: co-culture of bovine-brain endothelial cells (BBECs) and newborn rat astrocytes; experiment: In vitro cell model of transport across the BBB; type: in vitro ADME
Experimental: A in vitro cell model of BBB permeability was established using a co-culture of bovine-brain endothelial cells (BBECs) and newborn rat astrocytes. The cells were first cultured in 24-well (Transwell^R) permeable supports with a surface area of 0.33 cm^2 and a pore size of 0.4 µm (Corning), the upper surface of which was coated with collagen type IV and fibronectin. The inserts were then placed upside down in a large petri dish, and 40 µL of a suspension (containing approximately 45,000 astrocytes) was placed on the bottom of each filter. The petri dish was incubated at 37°C for 1 h, and 40 µL of fresh DMEM+S was added to the bottom of each filter every 15 min. The inserts were then transferred back to the plate and incubated at 37°C in 5% CO2 for 3 d. Then, 2 h before seeding the BBECs, the medium was replaced by DMEM+S supplemented with 125 µg/mL heparin and 2 h later, the cells were seeded onto the inserts (45,000 cells per filter). The plate was incubated at 37°C in 5% CO2 for 3 more days, after which the medium was replaced by DMEM+S supplemented with cyclic adenosine monophosphate (cAMP) and RO-20-1724, and kept at 37°C in 5% CO2. On day 8 of the co-culture, the transendothelial electrical resistance (TEER) was measured to determine whether the system was ready for transport studies. To validate the maturity of the model, permeability assays with lucifer yellow (LY) were performed in parallel as a marker of the integrity of the in vitro barrier. During the permeability assay, the samples were co-incubated with LY (20 µM) to assess the integrity of the cellular monolayer during the assay.

[3] = system: rat mixed cultures of neurons and astrocytes; experiment: Oxygen-glucose deprivation (OGD) with iodoacetate, LDH release; type: cell-based
Experimental: (§3) Finally, to prepare neuron-astrocyte co-cultures, neurons were resuspended in B27 Neurobasal medium plus 10% of foetal bovine serum (FBS) and then seeded onto a monolayer of astrocytes in 24-well plates at a density of 1–2×10^5 cells per well, the astrocytes having been prepared beforehand, as described elsewhere. One day later, the medium was replaced with B27-Neurobasal plus 10% FBS medium, and the cells were maintained at 37°C in 5% CO2. The cultures were used 8–9 days after plating. Neurons and astrocytes were identified with antibodies against microtubule-associated protein-2 and GFAP, respectively.
Ischemic damage was induced by incubating cell cultures for 1 h in a hyperbaric chamber in a nitrogen-saturated buffer containing: 130 mM NaCl, 5.4 mM KCl, 0.1323 mM CaCl2, 0.26 mM NaHCO3, 0.8 mM MgCl2, 1.18 mM NaH2PO4, 10 mM sucrose (OGD plus sucrose) and iodoacetate (IAA, 20 or 50 µM). IAA is a glycolytic blocker typically used in OGD experiments to simulate ischemic conditions. After the insult, the cells were incubated under normoxic conditions for an additional 24 h in the presence of glucose but in the absence of IAA. Distinct reagents were added during ischemia to evaluate their neuroprotective activity by assessing cell viability and cell death in the cultures.
The cell status was assessed by measuring the release of lactate dehydrogenase (LDH) from dead cells. LDH was measured spectrophotometrically at 490 nm on a 96-well plate reader using the Cytotox 96 Kit according to the manufacturer's instructions (Promega). The LDH release was defined by the ratio of LDH released to the total LDH present in the cell at the beginning of the treatment.

[4] = system: rat mixed astrocyte-neuron cultures; experiment: NMDA-induced caspase 3 activation in mixed astrocyte-neuron cultures; type: cell-based; details: pre- or co-treatment; MTA 250 µM, MK-801 10 µM; 300 µM NMDA
Experimental: as §3, §1, §2

5′-deoxy-5′-methylthioadenosine [MTA] was tested, and the “survival of neurons exposed to NMDA (caspase 3 activity)” value ([1]; co-treatment with MTA (100, 250 and 500 µM), 1 h) was “not enhanced”, the “caspase 3 activity induced by NMDA” value ([1]; pre-treatment 15 min before NMDA, MTA 100, 250 and 500 µM) was “decreased significantly” and the “Pe x 10^−6 (cm/s)” value [2] was 4.5 x 10^−6 cm/s. For the same substance, the “effective permeability coefficient (Pe)” value [2] was 4.5e-06 cm/s, the “protection against OGD (cell death, LDH release)” value ([3]; IAA 20 and 50 µM, MTA 10 µM or 100 µM, APV 100 µM) was “significant” and the “protection against OGD (cell death, LDH release)” value ([3]; supramaximal dose of MTA, 1 mM) was “neither protective nor did it lead to greater damage than OGD itself”. The “caspase 3 activation induced by NMDA” value [4] was “reverted to basal levels”.

Source: publication PMC3944389, “Differential Neuroprotective Effects of 5′-Deoxy-5′-Methylthioadenosine” (PLoS ONE, 2014)
